Assay: Pharmacokinetics in SD rats after intravenous injection and single oral gavage, plasma LC-MS/MS
Type: in vivo
Details: male, rat
Method: SD rats (male, 6-8 weeks old, from JH Laboratory Animal Co., Ltd.) were used for intravenous injection and single oral gavage administration. Plasma samples were collected at 0.083, 0.25, 0.5, 1, 2, 4, 8, and 24 hours post-dose.
The plasma samples were obtained by centrifugation (2000 rpm, 4° C., 5 min). Samples were added to a 96-well plate and mixed with 10 volumes of acetonitrile containing an internal standard. After mixing and shaking, the mixture was centrifuged (5800 rpm, 4° C., 10 min), and the supernatant was transferred to a new 96-well plate.
The resulting solution was injected into the LC-MS/MS system. Drug concentrations in plasma were quantified using the LC-MS/MS method, and pharmacokinetic parameters were calculated accordingly.

Question: For CC(C)(NC(=O)[C@H]1[C@@H]2CNC[C@H]1C2)c1ncc2c(Br)cccn12 [compound 1], which AUC(0-inf) (IV, 1 mg/kg) is on record?
Answer: 370 ng·h/mL

Question: And the AUC(0-t) (IV, 1 mg/kg)?
Answer: 361 ng·h/mL

Question: What about the MRT inf (IV, 1 mg/kg) of the same compound?
Answer: 0.879 h

Question: What about the clearance (IV, 1 mg/kg) of the same compound?
Answer: 45.2 mL/min/kg

Question: What about the half-life (IV, 1 mg/kg) of the same compound?
Answer: 0.814 h

Question: What about the Vd (IV, 1 mg/kg, read-out: Vss) of the same compound?
Answer: 2.38 L/kg

Question: And the Cmax (PO, 3 mg/kg)?
Answer: 36.3 ng/mL

Question: And the Tmax (PO, 3 mg/kg)?
Answer: 1.42 h

Question: And the half-life (PO, 3 mg/kg)?
Answer: 2.43 h
